From patent US8518917B2, “2-methylene-19-nor-vitamin D analogs and their uses” (Wisconsin Alumni Research Foundation, priority 2009, dated 2013)
Read-outs that look alike come from different tables or passages of the source.

Experiments:
vitamin D-deficient rats [1] = experiment: Intestinal calcium transport (everted gut sac method); format: in vivo, rat; settings: rats on 0.02% Ca diet, four consecutive ip doses
Description: (§1) Male, weanling Sprague-Dawley rats were placed on Diet 11 (Suda et al, J. Nutr. 100:1049, 1970) (0.47% Ca)+vitamins AEK for one week followed by Diet 11 (0.02% Ca)+vitamins AEK for 3 weeks. The rats were then switched to the same diet containing 0.47% Ca for one week followed by two weeks on the same diet containing 0.02% Ca. Dose administration began during the last week on 0.02% calcium diet. Four consecutive ip doses were given approximately 24 hours apart. Twenty-four hours after the last dose, blood was collected from the severed neck and the concentration of serum calcium determined by atomic absorption spectrometry as a measure of bone calcium mobilization. The first 10 cm of the intestine was also collected for intestinal calcium transport analysis using the everted gut sac method.

[2] = tested on: 24-hydroxylase (24Ohase) gene promoter; experiment: In vitro transcription assay, luciferase reporter in ROS 17/2.8 (bone) cells; format: cell-based; settings: FIG. 3; for EC50: ROS 17/2.8 cells, sixteen hours after dosing, read-out: EC50, transcriptional activity in bone cells (24-hydroxylase gene)
Description: Transcription activity was measured in ROS 17/2.8 (bone) cells that were stably transfected with a 24-hydroxylase (24Ohase) gene promoter upstream of a luciferase reporter gene (Arbour et al., 1998). Cells were given a range of doses. Sixteen hours after dosing the cells were harvested and luciferase activities were measured using a luminometer. RLU=relative luciferase units.

vitamin D-deficient rats [3] = experiment: Bone calcium mobilization (serum calcium); format: in vivo, rat
Description: as §1

[4] = biological target: T1, full-length recombinant rat vitamin D receptor (Rattus norvegicus, UniProt P13053); experiment: Vitamin D receptor competitive binding with [3H]-1,25(OH)2D3; settings: read-out: Ki, competition with [3H]-1,25(OH)2D3 for binding to vitamin D receptor
T1 construct: Full-length recombinant rat receptor was expressed in E. coli; histidine tag (C); made in house; host or cells: E. coli BL21 (DE3) Codon Plus RIL
T1 sequence (P13053 1-423): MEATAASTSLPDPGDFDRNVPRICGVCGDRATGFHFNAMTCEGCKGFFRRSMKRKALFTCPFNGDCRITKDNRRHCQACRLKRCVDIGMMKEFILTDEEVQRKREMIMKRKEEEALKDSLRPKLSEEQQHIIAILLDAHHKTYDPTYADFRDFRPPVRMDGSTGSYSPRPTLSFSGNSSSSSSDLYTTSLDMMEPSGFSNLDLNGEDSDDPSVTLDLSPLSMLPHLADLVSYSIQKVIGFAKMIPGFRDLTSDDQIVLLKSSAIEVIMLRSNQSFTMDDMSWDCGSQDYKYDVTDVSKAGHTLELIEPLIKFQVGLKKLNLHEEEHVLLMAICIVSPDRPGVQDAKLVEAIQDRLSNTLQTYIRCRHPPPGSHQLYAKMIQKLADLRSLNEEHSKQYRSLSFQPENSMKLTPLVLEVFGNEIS
Description: Full-length recombinant rat receptor was expressed in E. coli BL21 (DE3) Codon Plus RIL cells and purified to homogeneity using two different column chromatography systems. The first system was a nickel affinity resin that utilizes the C-terminal histidine tag on this protein. The protein that was eluted from this resin was further purified using ion exchange chromatography (S-Sepharose Fast Flow). Aliquots of the purified protein were quick frozen in liquid nitrogen and stored at −80° C. until use. For use in binding assays, the protein was diluted in TEDK50 (50 mM Tris, 1.5 mM EDTA, pH7.4, 5 mM DTT, 150 mM KCl) with 0.1% Chaps detergent. The receptor protein and ligand concentration was optimized such that no more than 20% of the added radiolabeled ligand was bound to the receptor.
The following day, 100 mcl of hydroxylapatite slurry (50%) was added to each tube and mixed at 10-minute intervals for 30 minutes. […] After the final wash, the pellets were transferred to scintillation vials containing 4 ml of Biosafe II scintillation cocktail, mixed and placed in a scintillation counter. Total binding was determined from the tubes containing only radiolabeled ligand.

[5] = tested on: Human promyelocytic leukemia (HL60) cells; experiment: HL-60 cell differentiation (nitro blue tetrazolium reduction); format: cell-based; settings: four days treatment, read-out: EC50, promotion of HL60 differentiation
Description: The study drugs were dissolved in ethanol and the concentrations determined using UV spectrophotometry. Serial dilutions were prepared so that a range of drug concentrations could be tested without changing the final concentration of ethanol (≦0.2%) present in the cell cultures.
Human promyelocytic leukemia (HL60) cells were grown in RPMI-1640 medium containing 10% fetal bovine serum. The cells were incubated at 37° C. in the presence of 5% CO2.
HL60 cells were plated at 1.2×10^5 cells/ml. Eighteen hours after plating, cells in duplicate were treated with drug. Four days later, the cells were harvested and a nitro blue tetrazolium reduction assay was performed (Collins et al., 1979; J. Exp. Med. 149:969-974). The percentage of differentiated cells was determined by counting a total of 200 cells and recording the number that contained intracellular black-blue formazan deposits. Verification of differentiation to monocytic cells was determined by measuring phagocytic activity (data not shown).

[6] = 780 pmol/day for 4 consecutive days, ip, rats on 0.02% Ca diet
[7] = four consecutive ip doses, rats on 0.02% Ca diet

Structure (SMILES) | times less potent than 1,25(OH)2D3 in promoting intestinal calcium transport (vitamin D-deficient rats [1]) | EC50 [2] [nM] | times less potent than 1,25(OH)2D3 in increasing transcription of the 24-hydroxylase gene ([2]; bone cells) | mobilization of bone calcium (serum calcium) (vitamin D-deficient rats [3]; [6]) | dose until which little to no bone calcium mobilization activity is observed (vitamin D-deficient rats [3]; [7]) [pmol/rat] | Ki ([4]; FIG. 1 experiment (1-desoxy-2MD vs 1,25(OH)2D3)) [nM] | EC50 ([5]; Homo sapiens, HL-60, 96 h, FIG. 2 experiment) [nM] | Ki ([4]; FIG. 6 experiment (1D-MJ vs 1,25(OH)2D3)) [nM] | EC50 ([5]; Homo sapiens, HL-60, 96 h, FIG. 7 experiment) [nM] | mobilization of bone calcium (serum calcium) (vitamin D-deficient rats [3]; 87 pmol, four consecutive ip doses, FIG. 8) | EC50 ([5]; FIG. 2 experiment) [nM] | EC50 ([5]; FIG. 7 experiment) [nM]
C=C1CC/C(=C\C=C2/CCC[C@]3(C)[C@@H]([C@@H](C)CCCC(C)(C)O)CC[C@@H]23)C[C@H]1O [1-desoxy-2MD, (20S)-25-hydroxy-2-methylene-19-nor-vitamin D3] | about 20 times | 4 | about 20 times | little or no mobilization of bone calcium | ≥ 7020 | 0.1 | 10 | – | – | – | – | –
C=C1CC/C(=C\C=C2/CCC[C@]3(C)[C@@H]([C@H](C)CCCC(C)(C)O)CC[C@@H]23)C[C@H]1O [1D-MJ, (20R)-25-hydroxy-2-methylene-19-nor-vitamin D3] | about 10 times | – | – | little or no mobilization of bone calcium | ≥ 7020 | – | – | 4 | 300 | – | – | –
C=C1/C(=C\C=C2/CCC[C@]3(C)[C@@H]([C@H](C)CCCC(C)(C)O)CC[C@@H]23)C[C@@H](O)C[C@@H]1O [1α,25-dihydroxyvitamin D3, reference compound] | – | 0.2 | – | significant increases in serum calcium | – | – | – | – | – | significant increases in serum calcium | 4 | 3
